Experimental data taken from patent publication US11535856B2, “Stilbenoid prenyltransferases from plants” (Arkansas State University—Jonesboro, priority 2016, dated 2022).

B1: AhR4DT-1 (Arachis hypogaea) (protein)
chain: MAFGHLVLIPRSTSSIATTAASCWKSKKFADNYYANSYGRRALWQSDRNLTKDHSIKTSLQHNISKLHYNPIERGSRCNKIEKTYLTNASSSAQSHESEPEVHESPKALESIKKGLVMFLQFCRLYAFLGMIPAGLSSSLLAVDNFSEISPLLFLKGVLQYIVTFFFTSQFVMGVNQLSDVEIDKINKPDLPLASGEYSFTSGVILVTSFLLAGFGVAWMLGSQPLIWSVVVTAALMGAYSVNFPLLRWKRSIILTSLSNAIAMLASFHIGPFLHMKTFVLKKAATFPRSMILGCVVIGLFYTIITLTKDLGDVEGDKAAGLKTLPIRLGVKPVFWLCVSLIQMAYGIAITMGALSPVLWSKIVTVVAHAFMVFYVWNHALNSVDLSSKDSLHSFHLFMFKLVTVEGILIQFVR
B2: AhR3′DT-1 (Arachis hypogaea) (protein)
chain: MAFGVVAASFSRAPSIVTTRGCYVTRASLPNKSLKFSKEYNLKTSLQHNWKHNSRSIFERGSTITTCDKYDEKKYLMNVTQSHEAEPHSQSILKSIIDALDAFRKFSRFYAFIAMVVGSLSTSLLAVDNLTELYPAFFNGFLQCMAAYFFMHLYIVGINQLADLEIDKINKPYLPLASGNYSFRTAVITVTSFLFTGFGIAWIIGSKPLLWTIFASFVLMTAYSVNLPLLRWKKSTILTVMGNTLSMVISFNLGPFYHMKTHVLKKAATFPRSLLFAVVVMSMYYIVIALTKDIPDIEGDKEAGLQTLAIRLGPKTVFWSSVALLEMAYGAAIIIGASSPFLWSKISVVLSHAILALFVWYRSTLVDLSNKDSLQAFYMLIFKLFSVENILMLFVR

What was measured:
[1] = in vivo; cited from earlier work
[2] = tested on: resveratrol prenyltransferase AhR4DT; assay: Prenyltransferase assay with microsomal fraction of elicited peanut hairy roots; type: biochemical, Arachis hypogaea; details: microsomal fraction of peanut hairy roots, 28° C., 60 min; read-out: apparent km
[3] = tested on: intracellular reactive oxygen species; details: cited from earlier work
macrophages = details: cited from earlier work
rotavirus = details: HT29.f8 cells; cited from earlier work
[4] = target: human cannabinoid receptors 2 (hCBR2s) (Homo sapiens, UniProt P34972); details: cited from earlier work
human cannabinoid receptors 2 (hCBR2s), sequence (P34972 whole entry): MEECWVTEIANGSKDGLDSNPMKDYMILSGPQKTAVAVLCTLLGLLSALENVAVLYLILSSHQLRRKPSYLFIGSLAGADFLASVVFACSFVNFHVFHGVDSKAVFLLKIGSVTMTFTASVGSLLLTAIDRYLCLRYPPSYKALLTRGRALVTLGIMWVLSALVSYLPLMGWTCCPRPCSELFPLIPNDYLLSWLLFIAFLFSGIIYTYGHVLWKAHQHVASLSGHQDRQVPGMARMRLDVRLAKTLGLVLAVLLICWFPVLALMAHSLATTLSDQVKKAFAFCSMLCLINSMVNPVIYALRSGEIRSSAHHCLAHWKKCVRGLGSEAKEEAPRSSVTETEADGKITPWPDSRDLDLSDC

[5] = Lipophilicity from retention in reverse-phase HPLC; details: later retention time in reverse-phase HPLC
leukemia HL-60 cells = details: cited from earlier work
[6] = tested on: SK-MEL, KB, BT-549, and SK-OV-3; details: BT-549, SK-OV-3; cited from earlier work
AhR4DT-1 = AhR4DT-1 (Arachis hypogaea, UniProt A0A2H4GDC8); assay: AhR4DT-1 activity in microsomal fraction of N. benthamiana leaves; details: N. benthamiana leaves
[7] = substrate: Oc1cc(O)cc(/C=C/c2ccc(O)c(O)c2)c1; assay: cells, lysate or membranes named
[8] = substrate: CC(C)=CCOP(=O)(O)OP(=O)(O)O; assay: cells, lysate or membranes named; details: other: microsomal fraction of N. benthamiana leaves, pH 9.0, 28° C.
[9] = substrate: Oc1ccc(/C=C/c2cc(O)cc(O)c2)cc1; assay: cells, lysate or membranes named; details: other: microsomal fraction of N. benthamiana leaves, pH 9.0, 28° C.
resveratrol prenylation = assay: Screening for stilbenoid prenylation activity, crude extract of infiltrated N. benthamiana leaves; type: biochemical, Arachis hypogaea; details: resveratrol and DMAPP as substrates
Procedure: The engineered A. tumefaciens was grown in 5 mL of YEP medium, containing 50 mg/L of kanamycin (Sigma-Aldrich) and 30 mg/L of streptomycin (Sigma-Aldrich) for antibiotic selection, at 28° C. on an orbital shaker at 200 rpm. After cultivation for 2 days, 5 mL of bacterial suspension was inoculated into 50 mL of fresh YEP medium containing the antibiotics and allowed to grow for one additional day under the same conditions. Bacteria were pelleted by centrifugation, resuspended in 500 mL of induction medium containing 10 mM MgCl2 with 1 mM acetosyringone and incubated for 4 h at 28° C. under 200 rpm orbital shaking until their OD600 reached to a range from 0.5 to 0.6. Before the infiltration, 0.005% of Tween-20, 0.005% of Triton 100 and 0.005% of Silwet L-77 were added to bacterial cultures to enhance the efficiency of transformation in N. benthamiana leaves. Agrobacterium-mediated vacuum infiltration was performed on 4-week-old N. benthamiana following the methodology described previously (Medrano et al., 2009).
After 48 hours of post-infiltration, the “middle tier” of N. benthamiana leaves were harvested for prenylation activity screening. Five grams of leaf tissue (fresh weight) were grounded and homogenized using a mortar with pestle in 10 mL of extraction buffer containing 100 mM Tris-HCl (pH 7.6) and 10 mM dithiothreitol (DTT). […] The total protein concentration was determined by coomassie protein assay (Thermo Scientific) using bovine serum albumin as standard.
The reaction of crude cell-free extract of N. benthamiana leaves infiltrated with A. tumefaciens harboring the empty pBIB-Kan vector was used as control.

AhR3′DT-1 = AhR3′DT-1 (Arachis hypogaea, UniProt A0A2H4GDD0); assay: AhR3′DT-1 activity in microsomal fraction of N. benthamiana leaves; details: N. benthamiana leaves

| Molecule | inhibiting production of intracellular reactive oxygen species [3] | inhibiting inducible nitric oxide production (macrophages) | replication of rotavirus (rotavirus) | binding to hCBR2s [4] | Km [8] [µM] | Km [9] [µM] | further results |
| --- | --- | --- | --- | --- | --- | --- | --- |
| Oc1ccc(/C=C/c2cc(O)cc(O)c2)cc1 [resveratrol, 3,5,4′-trihydroxy-trans-stilbene] | – | – | – | – | – | – | oral bioavailability [1]: limited oral bioavailability; Km [2]: 111 ± 40.4 µM |
| CC(C)=CCc1c(O)cc(/C=C/c2ccc(O)cc2)cc1O [arachidin-2] | greater potency over resveratrol | more effective than resveratrol | – | – | – | – | – |
| CC(C)/C=C/c1c(O)cc(/C=C/c2ccc(O)cc2)cc1O [arachidin-3] | greater potency over resveratrol | more effective than resveratrol | inhibiting the replication of rotavirus | shown to bind | – | – | – |
| CC(C)/C=C/c1c(O)cc(/C=C/c2ccc(O)c(O)c2)cc1O [arachidin-1] | – | more effective than resveratrol | inhibiting the replication of rotavirus | shown to bind | – | – | lipophilicity compared with 3,3-dimethylallyl analogs [5]: higher lipophilicity; cytotoxicity (leukemia HL-60 cells): higher cytotoxicity than resveratrol; cytotoxicity [6]: higher cytotoxicity than resveratrol |
| B1 | – | – | – | – | 153.7 ± 27.28 | 99.52 ± 15.11 | specific activity, microsomal fraction vs crude cell-free extracts (AhR4DT-1): 8.9 fold; Km ([7]; other: microsomal fraction of N. benthamiana leaves, pH 9.0, 28° C.): 311.4 ± 54.83 µM |
| B2 | – | – | – | – | 691.4 ± 48.46 | 17.67 ± 1.601 | resveratrol prenyltransferase activity (resveratrol prenylation): highest activity; Km ([7]; pH 9.0, 28.0 °C): 50.3 ± 5.509 µM; specific activity, microsomal fraction vs crude cell-free extracts (AhR3′DT-1): 13.9 fold |
